From PMC12207590, “Substrate Specificity of the Organic Cation Transporters MATE1 and MATE2K and Functional Overlap with OCT1 and OCT2” (Journal of Medicinal Chemistry, 2025)
Where two headings read alike, the source gives them in different places.

Assays:
[1] = molecular target: T1, MATE1 (Homo sapiens, UniProt Q96FL8); assay: Concentration-dependent uptake (Michaelis-Menten) via MATE1 in HEK293 cells; conditions: for Km: read-out: MATE1 KM
T1 sequence (Q96FL8 1-570): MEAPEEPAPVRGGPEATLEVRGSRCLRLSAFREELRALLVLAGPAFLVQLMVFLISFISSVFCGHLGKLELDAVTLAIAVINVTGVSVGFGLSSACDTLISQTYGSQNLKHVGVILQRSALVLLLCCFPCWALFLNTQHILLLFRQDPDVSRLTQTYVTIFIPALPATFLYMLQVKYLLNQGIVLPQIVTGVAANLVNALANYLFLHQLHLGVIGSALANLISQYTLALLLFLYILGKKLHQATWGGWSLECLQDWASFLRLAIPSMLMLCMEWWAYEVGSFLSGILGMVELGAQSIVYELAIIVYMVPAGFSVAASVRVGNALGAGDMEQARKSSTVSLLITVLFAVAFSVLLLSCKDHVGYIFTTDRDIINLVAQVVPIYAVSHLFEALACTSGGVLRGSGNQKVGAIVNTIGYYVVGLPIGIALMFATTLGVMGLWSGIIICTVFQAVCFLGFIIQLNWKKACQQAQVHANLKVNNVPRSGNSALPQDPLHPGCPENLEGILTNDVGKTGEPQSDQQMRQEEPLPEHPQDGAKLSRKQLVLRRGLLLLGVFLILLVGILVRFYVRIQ

[2] = molecular target: T2, MATE2K (Homo sapiens, UniProt Q86VL8); assay: Concentration-dependent uptake (Michaelis-Menten) via MATE2K in HEK293 cells; conditions: HEK293, 1 min, net uptake; for Km: read-out: MATE2K KM
[3] = molecular target: T1, MATE1; assay: Uptake ratio in MATE1-overexpressing HEK293 cells vs empty vector (2.5 μM, 1 min, HPLC-MS/MS); format: cell-based; conditions: for MATE1 ratio in this study: Table S1
[4] = molecular target: T2, MATE2K; assay: Uptake ratio in MATE2K-overexpressing HEK293 cells vs empty vector (2.5 μM, 1 min, HPLC-MS/MS); format: cell-based; conditions: for MATE2K ratio in this study: Table S1
[5] = system: MATE1, MATE2K, OCT1, OCT2; assay: Substrate specificity and overlap among the four transporters (ratio cutoff 2); format: cell-based, human
[6] = system: hCMEC; assay: TS DPH hCMEC (Table S2); format: cell-based, human; set-up: scale not given here
[7] = system: hCMEC; assay: TS MDAI hCMEC (Table S2); format: cell-based, human; set-up: scale not given here
[8] = fold uptake over empty vector, 2.5 μM, 1 min
[9] = uptake ratio MATE1-overexpressing vs empty-vector HEK293 cells, 2.5 μM, 1 min, mean
[10] = uptake ratio MATE2K-overexpressing vs empty-vector HEK293 cells, 2.5 μM, 1 min, mean

T2 sequence (Q86VL8 1-566 isoform Q86VL8-3): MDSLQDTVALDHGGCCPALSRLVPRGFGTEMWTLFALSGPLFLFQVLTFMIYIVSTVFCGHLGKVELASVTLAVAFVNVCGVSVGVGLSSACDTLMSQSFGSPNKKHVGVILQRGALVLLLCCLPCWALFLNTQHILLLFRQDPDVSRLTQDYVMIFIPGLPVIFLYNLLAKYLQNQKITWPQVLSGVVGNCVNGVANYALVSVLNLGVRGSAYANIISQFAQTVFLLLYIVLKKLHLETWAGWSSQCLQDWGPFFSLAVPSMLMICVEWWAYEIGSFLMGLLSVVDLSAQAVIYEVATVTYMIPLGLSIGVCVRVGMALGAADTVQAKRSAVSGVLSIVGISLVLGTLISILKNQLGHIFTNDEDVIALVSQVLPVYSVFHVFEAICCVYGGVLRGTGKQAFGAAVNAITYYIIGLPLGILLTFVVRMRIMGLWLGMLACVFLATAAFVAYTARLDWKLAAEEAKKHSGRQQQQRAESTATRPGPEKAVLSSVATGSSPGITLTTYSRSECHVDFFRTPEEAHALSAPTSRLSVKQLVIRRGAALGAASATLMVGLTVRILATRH

Row | Molecule | MATE1 Vmax ([1]; HEK293, 1 min, net uptake) | Km ([1]; HEK293, 1 min, net uptake) | MATE2K Vmax [2] | Km [2] | MATE1 ratio [3, 8] | MATE2K ratio [4, 8] | Substrate specificity among MATE1, MATE2K, OCT1, OCT2 ([5]; transport ratio cutoff of 2) | also measured
1 | CNC[C@H](O)c1ccc(O)c(O)c1 [Epinephrine] | 22,773 pmol × mg protein^–1 × min^–1 | 1080 µM | 2968 pmol × mg protein^–1 × min^–1 | 1510 µM |  |  |  | 
2 | CC(C)NCC(O)c1cc(O)cc(O)c1 (stereo not shown) [Orciprenaline] |  |  |  |  | 34.88 | 23.10 | All four transporters | 
3 | C#CCN[C@@H]1CCc2ccccc21 [Rasagiline] | 194 pmol × mg protein^–1 × min^–1 | 167 µM | linear |  | 1.18 | 2.16 | specific for only OCT2 and MATE2K | MATE1 [3, 9]: 1.18; MATE2 [4, 10]: 2.16; TS DPH hCMEC ([6]; Table S2): 0.54; TS MDAI hCMEC ([7]; Table S2): 0.51
4 | [H]/N=C(/N)N/C(=N/[H])NCCc1ccccc1 [Phenformin] | 8451 pmol × mg protein^–1 × min^–1 | 101 µM | 1361 pmol × mg protein^–1 × min^–1 | 73.1 µM | 19.54 | 3.01 |  | 
5 | CC(=O)OC(C)C[N+](C)(C)C (stereo not shown) [Methacholine] | 17,843 pmol × mg protein^–1 × min^–1 | 1990 µM | 1240 pmol × mg protein^–1 × min^–1 | 1400 µM | 21.58 | 2.57 |  | 
6 | NC[C@H](O)c1ccc(O)c(O)c1 [Norepinephrine] | 18,720 pmol × mg protein^–1 × min^–1 | 1870 µM | 673 pmol × mg protein^–1 × min^–1 | 1150 µM |  |  |  | 
7 | Cc1c(N)c(=O)n(-c2ccccc2)n1C [4-Aminoantipyrine] | linear |  | linear |  |  |  |  | TS DPH hCMEC ([6]; Table S2): 1.09; TS MDAI hCMEC ([7]; Table S2): 1.01
8 | COC(=O)C(c1ccccc1)C1CCCCN1 (stereo not shown) [Methylphenidate] |  |  |  |  |  |  | OCT2 only | TS DPH hCMEC [6]: 0.33; TS MDAI hCMEC [7]: 0.24
9 | CC1(C)N=C(N)N=C(N)N1c1ccc(Cl)cc1 [Cycloguanil] |  |  |  |  | 21.02 | 10.75 | All four transporters | MATE1 ratio in this study ([3]; 2.5 μM, 1 min): 21.02; MATE2K ratio in this study ([4]; 2.5 μM, 1 min): 10.75
10 | thyrotropin-releasing hormone |  |  |  |  |  |  | no substrates of the four transporters | 
11 | Nc1ccncc1 [Fampridine (4-aminopyridine), 4-aminopyridine] |  |  |  |  |  |  | OCT2 only | 
12 | COc1cc(Cc2cnc(N)nc2N)cc(OC)c1OC [trimethoprim] |  |  |  |  |  |  | OCT1 only | MATE1 [3, 9]: 1.52; MATE2 [4, 10]: 1.23
13 | CCCCCCN [Hexylamine] |  |  |  |  |  |  | OCT1 only | MATE1 ratio [3]: 1.21; MATE2K ratio [4]: 1.08
14 | Nc1nc(=O)n([C@@H]2CS[C@H](CO)O2)cc1F [Emtricitabine] | 4523 pmol × mg protein^–1 × min^–1 | 992 µM | 2634 pmol × mg protein^–1 × min^–1 | 873 µM | 3.22 | 2.88 |  | MATE1 ratio in this study ([3]; 2.5 μM, 1 min): 3.22; MATE2K ratio in this study ([4]; 2.5 μM, 1 min): 2.88
15 | COc1ccc2c3c1O[C@H]1C(=O)CC[C@@]4(O)[C@@H](C2)NCC[C@]314 [Noroxycodone] |  |  |  |  |  |  | OCT1 only | MATE1 ratio [3]: 1.39; MATE2K ratio [4]: 1.13
16 | C[N@+]1(CC2CC2)CC[C@]23c4c5ccc(O)c4O[C@H]2C(=O)CC[C@@]3(O)[C@H]1C5 [Methylnaltrexone] | 55.8 pmol × mg protein^–1 × min^–1 | 17.9 µM | 41.6 pmol × mg protein^–1 × min^–1 | 86.8 µM |  |  | All four transporters | TS DPH hCMEC ([6]; Table S2): 1.11; TS MDAI hCMEC ([7]; Table S2): 0.84

Row | Molecule | MATE1 Vmax ([1]; HEK293, 1 min, net uptake) | Km ([1]; HEK293, 1 min, net uptake) | MATE2K Vmax [2] | Km [2] | MATE1 ratio [3, 8] | MATE2K ratio [4, 8] | Substrate specificity among MATE1, MATE2K, OCT1, OCT2 ([5]; transport ratio cutoff of 2) | also measured
17 | N=C(N)c1ccc2cc(OC(=O)c3ccc(N=C(N)N)cc3)ccc2c1 [Nafamostat] |  |  |  |  |  |  | MATE1 only | MATE1 ratio [3]: 5.45; MATE2K ratio [4]: 1.64
18 | COc1ccc(OC)c(C(O)CNC(=O)CN)c1 (stereo not shown) [Midodrine] |  |  |  |  | 4.53 | 1.43 | MATE1 only | TS DPH hCMEC ([6]; Table S2): 1.05; TS MDAI hCMEC ([7]; Table S2): 1.02
19 | CC[C@@]1(O)C(=O)OCc2c1cc1n(c2=O)Cc2cc3c(CN(C)C)c(O)ccc3nc2-1 [Topotecan] |  |  |  |  |  |  | MATE1 only | MATE1 ratio in this study ([3]; 2.5 μM, 1 min): 2.53; MATE1 [3, 9]: 2.53; MATE2K ratio in this study ([4]; 2.5 μM, 1 min): 1.61; MATE2 [4, 10]: 1.61
20 | CCOC(=O)C1(c2ccccc2)CCN(C)CC1 [Pethidine] |  |  |  |  |  |  | MATE2K only | 
21 | C[C@H](N)[C@@H](O)c1ccccc1 [Cathine] |  |  |  |  |  |  | OCT2 only | TS DPH hCMEC [6]: 0.35
22 | COc1cc(C(O)CN)ccc1O (stereo not shown) [Normetanephrine] |  |  |  |  | 1.80 | 0.82 | OCT1 only | 
23 | COCCn1c2c([n+](Cc3cnccn3)c1C)C(=O)c1ccccc1C2=O [Sepantronium] |  | 80.9 µM | 78.5 pmol × mg protein^–1 × min^–1 | 8.54 µM |  |  |  | MATE1 [3]: 6.15; MATE1 ratio [3]: 6.15; MATE2 [4]: 9.45; MATE2K ratio [4]: 9.45; TS DPH hCMEC [6]: 1.01; TS MDAI hCMEC [7]: 0.99; MATE1 Vmax [1]: 304 pmol × mg protein^–1 × min^–1
24 | Cc1ncc(CO)c(CO)c1O [Pyridoxin] | 10,014 pmol × mg protein^–1 × min^–1 | 4230 µM | 593 pmol × mg protein^–1 × min^–1 | 495 µM | 2.33 | 1.18 |  | MATE1 [3, 9]: 2.33; MATE2 [4, 10]: 1.18
25 | CC(CCc1ccc(O)cc1)NCCc1ccc(O)c(O)c1 (stereo not shown) [Dobutamine] | 2586 pmol × mg protein^–1 × min^–1 | 88.6 µM | 493 pmol × mg protein^–1 × min^–1 | 86.4 µM | 17.41 | 2.77 |  | TS DPH hCMEC ([6]; Table S2): 0.67; TS MDAI hCMEC ([7]; Table S2): 0.99
26 | Cc1ncc(CO)c(CN)c1O [Pyridoxamine] | 5442 pmol × mg protein^–1 × min^–1 | 1690 µM | 989.5 pmol × mg protein^–1 × min^–1 | 1550 µM | 2.68 | 1.36 | MATE1 only | MATE1 [3, 9]: 2.68; MATE2 [4, 10]: 1.36
27 | NCCc1ccc(O)cc1 [Tyramine] | 5948 pmol × mg protein^–1 × min^–1 | 136 µM | 2868 pmol × mg protein^–1 × min^–1 | 1060 µM |  |  |  | MATE1 ratio in this study ([3]; 2.5 μM, 1 min): 10.06; MATE1 [3, 9]: 10.06; MATE2K ratio in this study ([4]; 2.5 μM, 1 min): 1.39; MATE2 [4, 10]: 1.39
28 | CC[N+](CC)(CC)CC(=O)Nc1c(C)cccc1C [N-Ethyl-lidocaine] |  |  |  |  | 36.39 | 14.68 | All four transporters | 
29 | Cc1ncc(C[n+]2csc(CCO)c2C)c(N)n1 [Thiamine] | 599 pmol × mg protein^–1 × min^–1 | 17.2 µM | 109.2 pmol × mg protein^–1 × min^–1 | 17.3 µM |  |  | All four transporters | MATE1 ratio in this study ([3]; 2.5 μM, 1 min): 33.42; MATE1 [3, 9]: 33.42; MATE2K ratio in this study ([4]; 2.5 μM, 1 min): 10.63; MATE2 [4, 10]: 10.63
30 | CNC[C@H](O)c1cccc(O)c1 [Phenylephrine] | 11,611 pmol × mg protein^–1 × min^–1 | 474 µM | 776 pmol × mg protein^–1 × min^–1 | 434 µM | 13.78 | 1.75 |  | TS DPH hCMEC ([6]; Table S2): 0.76; TS MDAI hCMEC ([7]; Table S2): 1.03
31 | C[C@H](CS)C(=O)N1CCC[C@H]1C(=O)O [Captopril] |  |  |  |  |  |  |  | Substrate specificity among MATE1, MATE2K, OCT1, OCT2 [5]: no substrates of the four transporters
32 | NCCc1ccc(O)c(O)c1 [Dopamine] | 10,148 pmol × mg protein^–1 × min^–1 | 530 µM | 1219 pmol × mg protein^–1 × min^–1 | 961 µM | 39.94 | 1.97 |  | 
